From patent publication US20240252694A1, “CONJUGATES COMPRISING COVALENT BINDERS FOR TARGETING INTRACELLULAR KRAS G12C PROTEINS” (RayzeBio, Inc., priority 2021, published 2024)
Read-outs that look alike come from different tables or passages of the source.

Key:
[1] = tested on: human ERK1 dually phosphorylated at T202/Y204 and ERK2; experiment: Phosphorylated ERK1/ERK2 ELISA; assay type: cell-based; conditions: phosphorylated ERK in cell lysates after treatment with compounds, sandwich ELISA, cell line not stated
Protocol: An ERK phosphorylation ELISA kit was used to characterize compounds for KRAS-based cell activity. The sandwich ELISA (RnD Systems. Catalog #DYC1018B) measures human ERK1 that is dually phosphorylated at T202/Y204 and ERK2. Cell lysates from cells before and after treatment with compounds were prepared using kit manufacturer protocols.
All reagents were prepared following the kit's protocol. The wells of a 96-well microtiter plate were coated with 100 μL of 8.0 μg/mL of capture antibody in PBS. The plate was sealed and left to incubate overnight at ambient temperature. After incubation, the wells were washed with 400 μL of Wash Buffer for a total of 3 washes. Wells were then blocked by adding 300 μL of Block Buffer to each well and incubated at ambient temperature for 1-2 hours. After removal of the Block Buffer by aspirating and washing, 100 μL of standards and samples were added to the plate in duplicates and incubated for 2 hours at ambient temperature. The aspiration and wash steps were repeated to remove unbound standard and samples and 100 μL of 400 ng/mL detection antibody was applied to each well. After 2 hours at ambient temperature, detection antibody was removed by washing and 100 μL of Streptavidin-HRP was added to each well. Incubation of Streptavidin-HRP was at ambient temperature for 20 minutes, after which Streptavidin-HRP was removed by washing, 100 μL of Substrate Solution was added to each well and incubated for 20 minutes before 50 μL of Stop Solution was added to each well.
The optical density of each well was immediately analyzed at 450 nm with a wavelength correction at 540 nm. The standards were plotted by averaging the optical density for each replicate and fitted with a four-parameter logistic curve fit. Concentrations of phosphorylated ERK in cell lysate samples were determined by extrapolation from the standard curve and then adjusted for any dilution factors.

KRAS (G12C) = target: T1, KRAS (G12C) (Homo sapiens, UniProt P01116, G12C); experiment: KRAS G12C Nucleotide Exchange Assay (fixed GTP concentration); assay type: biochemical
T1 construct: purchased BPS Bioscience 79859
T1 sequence (P01116 1-188 isoform P01116-2 G12C): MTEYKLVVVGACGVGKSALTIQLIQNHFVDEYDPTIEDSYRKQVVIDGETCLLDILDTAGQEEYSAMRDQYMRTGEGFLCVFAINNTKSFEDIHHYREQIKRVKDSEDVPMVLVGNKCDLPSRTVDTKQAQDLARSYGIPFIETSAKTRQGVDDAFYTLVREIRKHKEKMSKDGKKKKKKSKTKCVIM
Protocol: A KRAS (G12C) Nucleotide Exchange Assay kit was used to evaluate compound antagonistic binding. The assay kit (BPS Bioscience. Catalog #79859) utilizes KRAS (G12C) labeled with BODIPY-GDP to determine if compounds can affect the nucleotide exchange (GDP to GTP) in KRAS signaling, Compounds were typically characterized using both protocols: fixed GTP concentrations and fixed inhibitor concentrations.
All reagents were prepared following manufacturer's protocol. 5 μL BODIPY-GDP and 10 μL of KRAS buffer were added to each well. A 3-fold serial dilution of compound in 5% DMSO was prepared. Typically, compounds were tested in the range of 0 μM to 50 μM, but the range could be modified depending on the characterization needs. 5 μL of diluted compound was added to the wells and the plate was centrifuged briefly to ensure all components were mixed before incubation at ambient temperature. After incubation for 2 hours, 10 μM GTP and 25 mM EDTA were mixed at a 1:1 ratio and 5 μL was added to the wells. The plate was then incubated for 1 hour at ambient temperature. After incubation, fluorescence was measured at […].
Data was analyzed by plotting fluorescence vs GTP concentration for control wells and compound wells.

[2] = KRAS (G12C) labeled with BODIPY-GDP, fixed GTP concentration, 2 hours compound incubation, fluorescence readout, read-out: IC50

Compound | IC50 ([1]; Homo sapiens) [µM] | other results
C=CC(=O)N1CCN(c2nc(OC[C@@H]3CCCN3CCCNC(=O)c3cccc(I)c3)nc3c2CCN(c2cccc4cccc(Cl)c24)C3)C[C@@H]1CC#N [Ex-5, N-[3-[(2S)-2-[[7-(8-chloro-1-naphthyl)-4-[(3S)-3-(cyanomethyl)-4-prop-2-enoyl-piperazin-1-yl]-6,8-dihydro-5H-pyrido[3,4-d]pyrimidin-2-yl]oxymethyl]pyrrolidin-1-yl]propyl]-3-iodo-benzamide] | 1 to 10 | IC50 (KRAS (G12C); [2]): 1 to 10 µM
N-[4-[(2S)-2-[[7-(8-chloro-1-naphthyl)-4-[(3S)-3-(cyanomethyl)-4-prop-2-enoyl-piperazin-1-yl]-6,8-dihydro-5H-pyrido[3,4-d]pyrimidin-2yl]oxymethyl]pyrrolidin-1-yl]butyL]1J-2-[(6S,9S, 12S, 21 S)-6,9,12,21-tetraethyl-3,16,19-trioxo-2,17,18-trioxa-5,8,11,14-tetraza-17,3-lutetatricyclo[9.6.3,25,14]docosan-8-yl]acetamide [Lu-CHL-005] |  | IC50 [1]: 0.1 to 1 µM
C=CC(=O)N1CCN(c2nc(OC[C@@H]3CCCN3CCCCOCc3cccc(I)c3)nc3c2CCN(c2cccc4cccc(Cl)c24)C3)C[C@@H]1CC#N [Ex-3] | 0.1 to 1 | IC50 (KRAS (G12C); [2]): 1 to 10 µM
C=CC(=O)N1CCN(c2nc(OC[C@@H]3CCCN3CCCOCc3cccc(I)c3)nc3c2CCN(c2cccc4cccc(Cl)c24)C3)C[C@@H]1CC#N [Ex-2, 2-[(2S)-4-[7-(8-chloro-1-naphthyl)-2-[[(2S)-1-[3-[(3-iodophenyl)methoxy]propyl]pyrrolidin-2-yl]methoxy]-6,8-dihydro-5H-pyrido[3,4-d]pyrimidin-4-yl]-1-prop-2-enoyl-piperazin-2-yl]acetonitrile] | 0.1 to 1 | IC50 (KRAS (G12C); [2]): 1 to 10 µM
C=CC(=O)N1CCN(c2nc(OC[C@@H]3CCCN3CCCCCCNC(=O)CN3CCN4CCN5CCN(CC3)CC(=O)[O][Lu]([O]C(=O)C4)[O]C(=O)C5)nc3c2CCN(c2cccc4cccc(Cl)c24)C3)C[C@@H]1CC#N [Lu-CHL-001, N-[6-[(2S)-2-[[7-(8-chloro-1-naphthyl)-4-[(3 S)-3-(cyanomethyl)-4-prop-2-enoyl-piperazin-1-yl]-6,8-dihydro-5H-pyrido[3,4-d]pyrimidin-2-yl]oxymethyl]pyrrolidin-1-yl]hexyl]-2-(3,16,19-trioxo-2,17,18-trioxa-5,8,11,14-tetraza-1λ3-lutetatricyclo[9,6,3,25,14]docosan-8-yl)acetamide] |  | IC50 [1]: 1 to 10 µM; IC50 (KRAS (G12C)): 1 to 10 µM
C=CC(=O)N1CCN(c2nc(OC[C@@H]3CCCN3CCOCc3cccc(I)c3)nc3c2CCN(c2cccc4cccc(Cl)c24)C3)C[C@@H]1CC#N [Ex-1, 2-[(2S)-4-[7-(8-chloro-1-naphthyl)-2-[[(2S)-1-[2-[(3-iodophenyl)methoxy]ethyl]pyrrolidin-2-yl]methoxy]-6,8-dihydro-5H-pyrido[3,4-d]pyrimidin-4-yl]-1-prop-2-enoyl-piperazin-2-yl]acetonitrile] | 0.1 to 1 | 
C=CC(=O)N1CCN(c2nc(OC[C@@H]3CCCN3CCCOC(=O)c3cccc(I)c3)nc3c2CCN(c2cccc4cccc(Cl)c24)C3)C[C@@H]1CC#N [Ex-4] | < 0.1 | 
C=CC(=O)N1CCN(c2nc(OC[C@@H]3CCCN3CCCCNC(=O)CN3CCN4CCN5CCN(CC3)CC(=O)[O][Lu]([O]C(=O)C4)[O]C(=O)C5)nc3c2CCN(c2cccc4cccc(Cl)c24)C3)C[C@@H]1CC#N [Lu-CHL-003, N-[4-[(2S)-2-[[7-(8-chloro-1-naphthyl)-4-[(3S)-3-(cyanomethyl)-4-prop-2-enoyl-piperazin-1-yl]-6,8-dihydro-5Hpyrido[3,4-d]pyrimidin-2-yl]oxymethyl]pyrrolidin-1-yl]butyl]-2-(3,16,19-trioxo-2,17,18-trioxa-5,8,11,14-tetrazaλ3-lutetatricyclo[9.6.3,25,14]docosan-8-yl)acetamide] |  | IC50 [1]: 1 to 10 µM; IC50 (KRAS (G12C)): < 1 µM
C=CC(=O)N1CCN(c2nc(OC[C@@H]3CCCN3CCCCCCNC(=O)CN3CCN(CC(=O)O)CCN(CC(=O)O)CCN(CC(=O)O)CC3)nc3c2CCN(c2cccc4cccc(Cl)c24)C3)C[C@@H]1CC#N [CHL-001, 2-[4,7-bis(carboxymethyl)-10-[2-[6-[(2S)-2-[[7-(8-chloro-1-naphthyl)-4-[(3S)-3-(cyanomethyl)-4-prop-2-enoyl-piperazin-1-yl]-6,8-dihydro-5H-pyrido[3,4-d]pyrimidin-2-yl]oxymethyl]pyrrolidin-1-yl]hexylamino]-2-oxo-ethyl]-1,4,7,10-tetrazacyclododec-1-yl]acetic acid] |  | IC50 [1]: ≥ 10 µM

More lines, main results first:

IC50 ([1]; Homo sapiens) [µM] | Compound | other results
< 0.1 | C=CC(=O)N1CCN(c2nc(OC[C@@H]3CCCN3C)nc3c2CCN(c2cccc4cccc(I)c24)C3)C[C@@H]1CC#N [Ex-9, 2-[(2S)-4-[7-(8-iodo-1-naphthyl)-2-[[(2S)-1-methylpyrrolidin-2-yl]methoxy]-6,8-dihydro-5H-pyrido[3,4-d]pyrimidin-4-yl]-1-prop-2-enoyl-piperazin-2-yl]acetonitrile] | IC50 (KRAS (G12C); [2]): 1 to 10 µM
< 0.1 | C=CC(=O)N1CCN(c2nc(OC[C@@H]3CCCN3CC(O)CO)nc3c2CCN(c2cccc4cccc(I)c24)C3)C[C@@H]1CC#N (some centres unmarked) [Ex-13] | 
< 0.1 | C=CC(=O)N1CCN(c2nc(OC[C@@H]3CCCN3CCC(C)(C)C(=O)O)nc3c2CCN(c2cccc4cccc(I)c24)C3)C[C@@H]1CC#N [Ex-12, 4-[(2S)-2-[[4-[(3S)-3-(cyanomethyl)-4-pop-2-enoyl-piperazin-1-yl]-7-(8-iodo-1-naphthyl)-6,8-dihydro-5H-pyrido[3,4-d]pyrimidin-2-yl]oxymethyl]pyrrolidin-1-yl]-2,2-dimethyl-butanoic acid] | 
< 0.1 | C=CC(=O)N1CCN(c2nc(OC[C@@H]3CCCN3CCC(=O)O)nc3c2CCN(c2cccc4cccc(I)c24)C3)C[C@@H]1CC#N [Ex-10] | 
< 0.1 | C=CC(=O)N1CCN(c2nc(OC[C@@H]3CCCN3CCCC(=O)O)nc3c2CCN(c2cccc4cccc(I)c24)C3)C[C@@H]1CC#N [Ex-11, 4-[(2S)-2-[[4-[(3S)-3-(cyanomethyl)-4-prop-2-enoyl-piperazin-1-yl]-7-(8-iodo-1-naphthyl)-6,8-dihydro-5H-pyrido(3,4-d]pyrimidin-2-yl]oxymethyl]pyrrolidin-1-yl]butanoic acid] | 
< 0.1 | C=CC(=O)N1CCN(c2nc(OC[C@@H]3CCCN3CC(CO)CO)nc3c2CCN(c2cccc4cccc(I)c24)C3)C[C@@H]1CC#N [Ex-14, 2-[(2S)-4-[2-[I(2S)-1-[3-hydroxy-2-(hydroxymethyl)propylpyrrolidin-2-yl]methoxy]-7-(8-iodo-1-naphthyl)-6,8-dihydro-5H-pyrido(3,4-d]pyrimidin-4-yl]-1-prop-2-enoyl-piperazin-2-yl]acetonitrile] | 
0.1 to 1 | C=CC(=O)N1CCN(c2nc(OC[C@@H]3CCCN3CCC(C)(C)OC(=O)c3cccc(I)c3)nc3c2CCN(c2cccc4cccc(Cl)c24)C3)C[C@@H]1CC#N [Ex-8, [3-[(2S)-2-[[7-(8-chloro-1-naphthyl)-4-[(3S)-3-(cyanomethyl)-4-prop-2-enoyl-piperazin-1-yl]-6,8-dihydro-5Hpyrido[3,4-d]pyrimidin-2-yl]oxymethyl]pyrrolidin-1-yl]-1,1-dimethyl-propyl]3-iodobenzoate] | 
< 0.1 | C=CC(=O)N1CCN(c2nc(OC[C@@H]3CCCN3CCCC(=O)OCc3cccc(I)c3)nc3c2CCN(c2cccc4cccc(Cl)c24)C3)C[C@@H]1CC#N [Ex-6, (3-iodophenyl)methyl 4-[(2S)-2-[[7-(8-chloro-1-naphthyl)-4-[(3S)-3-(cyanomethyl)-4-prop-2-enoyl-piperazin-1-yl]-6,8-dihydro-5H-pyrido[3,4-d]pyrimidin-2-yl]oxymethyl]pyrrolidin-1-yl]butanoate] | 
